{"source": "patent US20070066505A1", "about": "“Anthocyanases as detergent additives” (priority 2005, published 2007)", "key": {"[1]": {"test_system": "Debaryomyces vanrijiae anthocyanase (DVantp, enzyme-4), native", "assay": "Km determination via β-glucosidase activity, anthocyanase of D. vanrijiae (enzyme-4)", "format": "biochemical", "conditions": "read-out: Km value for cellobiose; established data", "description": "Moreover, the molecular weight and the isoelectric point were taken from literature (A. Belancic et al., J. Agric. Food Chem., 51: 1453-1459)."}, "[2]": {"test_system": "Debaryomyces hansenii anthocyanase (Dantp, enzyme-2), native", "assay": "Km determination via β-glucosidase activity, anthocyanase of D. hansenii (enzyme-2)", "format": "biochemical", "conditions": "read-out: Km value for cellobiose; native enzyme-2", "description": "The biochemical examinations of the anthocyanase (enzyme-2) of D. hansenii were performed corresponding to the anthocyanases examined up to then. Thus, their biochemical parameters were determined by means of β-glucosidase activity determinations. […] D. hansenii anthocyanase has a temperature optimum of 55° C. and a pH optimum of 5.0. […] Furthermore, with this yeast, too, one started to establish the substrate spectrum."}, "[3]": {"test_system": "Pichia etchellsii anthocyanase (Pantp, enzyme-5), native", "assay": "Km determination via β-glucosidase activity, anthocyanase of P. etchellsii (enzyme-5)", "format": "biochemical", "conditions": "native enzyme-5", "description": "The biochemical examinations of the anthocyanase (enzyme-5) of P. etchellsii were performed analogously to the anthocyanases examined up to then.\nThe temperature optimum was 50° C. and the optimal pH value was 6.5."}, "[4]": {"substrate": "O=[N+]([O-])c1ccc(O[C@@H]2O[C@H](CO)[C@@H](O)[C@H](O)[C@H]2O)cc1", "assay": "Km determination, recombinant anthocyanase (r-enzyme-1) of C. molischiana", "format": "biochemical, Candida molischiana", "conditions": "other: recombinant anthocyanase (r-enzyme-1); pH 5.5", "description": "(§1) A. adeninivorans G1211/pAL-ALEU2m-BGLN was tested for the presence of recombinant anthocyanase (Bglnp-r-enz-1). For doing so, the recombinant enzyme was isolated, purified and biochemically characterized.\n(§2) The recombinant anthocyanase has parameters very similar to those of C. molischiana enzyme (FIG. 9 and FIG. 10).\n(§3) The temperature optimum was established at 40° C. The temperature range in which this anthocyanase was still has more than 80% activity was between 37.5° C. and 50° C. The optimum pH value was 4.0. However, the recombinant anthocyanase has an essentially broader pH tolerance range than the anthocyanase synthesized in C. molischiana. Thus, its activity was still 80% with a pH value of 5.5."}, "[5]": {"substrate": "OC[C@H]1O[C@@H](O[C@H]2[C@H](O)[C@@H](O)C(O)O[C@@H]2CO)[C@H](O)[C@@H](O)[C@@H]1O", "assay": "Km determination, recombinant anthocyanase (r-enzyme-1) of C. molischiana", "format": "biochemical, Candida molischiana", "conditions": "other: recombinant anthocyanase (r-enzyme-1); pH 5.5", "description": "as §1, §2, §3"}}, "note": "Like-named read-outs stand apart in the source and are kept apart here.", "data": [{"molecule": "OC[C@H]1O[C@@H](O[C@H]2[C@H](O)[C@@H](O)C(O)O[C@@H]2CO)[C@H](O)[C@@H](O)[C@@H]1O", "note": "(stereo partly drawn) [cellobiose]", "values": [{"measurement": "Km", "setting": "[1]", "value": 8.3, "unit": "mM"}, {"measurement": "Km", "setting": "[2]", "value": 16.3, "unit": "mM"}, {"measurement": "Km", "setting": "[3]; read-out: Km value for cellobiose", "value": 84.5, "unit": "mM"}]}, {"molecule": "O=[N+]([O-])c1ccc(O[C@@H]2O[C@H](CO)[C@@H](O)[C@H](O)[C@H]2O)cc1", "note": "[pNPG]", "values": [{"measurement": "Km", "setting": "[3]; read-out: Km value for pNPG", "value": 59.7, "unit": "mM"}]}, {"molecule": "Candida molischiana anthocyanase (anthocyanin-β-glucosidase), recombinant, produced in Arxula adeninivorans (r-enzyme-1, rBglnp) (Kuraishia capsulata) (protein) KNISKAEMENLEHWWSYGRSDPVYPSPEISGLGDWQFAYQRAREIVALMTNEEKTNLTFGSSGDTGCSGMISDVPDVDFPGLCLQDAGNGVRGTDMVNAYASGLHVGASWNRQLAYDRAVYMGAEFRHKGVNVLLGPVVGPIGRVATGGRNWEGFTNDPYLAGALVYETTKGIQENVIACTKHFIGNEQETNRNPSGTYNQSVSANIDDKTMHELYLWPFQDSVRAGLGSIMGSYNRVNNSYACKNSKVLNGLLKSELGFQGFVVSDWGGQHTGIASANAGLDMAMPSSTYWEEGLIEAVKNGTVDQSRLDDMATRIIAAWYKYARLDDPGFGMPVSLAEDHELVDARDPAAASTIFQGAVEGHVLVKNENALPLKKPKYISLFGYDGVSTDVNTVGGGFSFFSFDVKAIENKTLISGGGSGTNTPSYVDAPFNAFVAKAREDNTFLSWDFTSAEPVANPASDACIDFINAAASEGYDRPNLADKYSDKLVEAVASQCSNTIVVIHNAGIRLVDNWIEHENVTGVILAHLPGQDTGTSLIEVLYGNQSPSGRLPYTVAKKASDYGGLLWPTEPEGDLDLYFPQSNFTEGVYIDYKYFIQKNITPRYEFGYGLTYTTFDYSELEVDAITNQSYLPPDCTIEEGGAKSLWDIVATVKFTVTNTGDVAAAEVPQLYVGIPNGPPKVLRGFDKKLIHPGQSEEFVFELTRRDLSTWDVVAQNWGLQAGTYQFYVGRSVFDVPLTSALVFTN", "values": [{"measurement": "Km", "setting": "[4]", "value": 5.56, "unit": "mM"}, {"measurement": "Km", "setting": "[5]", "value": 58.27, "unit": "mM"}]}]}
